Drawing on publication PMC10461100, “Transcuticular calcium imaging as a tool for the functional study of insect odorant receptors” (Frontiers in Molecular Neuroscience, 2023), this text covers EC50 for three molecules.

The subject of experiment [1] is T1, SlitOR29.
T1 construct: full-length UAS transgene in Drosophila melanogaster ab3A basiconic neurons in place of DmelOR22a/b; endogenous Drosophila Orco; GCaMP6s reporter co-expressed; with Odorant receptor coreceptor (endogenous, Drosophila melanogaster)
The experiment in a line: transcuticular calcium imaging (GCaMP6s), dose-response. Also on record: species or system Spodoptera littoralis. Particulars: volatile stimulus; dose loaded on filter paper (in mineral oil), not a concentration; in vivo fly antenna; 1 s puff.

The target of experiment [2] is T2, SlitOR6 (Spodoptera littoralis, UniProt I6LJY9).
T2 construct: gene OR6; full-length UAS transgene in Drosophila melanogaster at1 trichoid neurons in place of DmelOR67d; endogenous Drosophila Orco; GCaMP6m reporter co-expressed; with Odorant receptor coreceptor (endogenous, Drosophila melanogaster)
T2 sequence (I6LJY9 1-432): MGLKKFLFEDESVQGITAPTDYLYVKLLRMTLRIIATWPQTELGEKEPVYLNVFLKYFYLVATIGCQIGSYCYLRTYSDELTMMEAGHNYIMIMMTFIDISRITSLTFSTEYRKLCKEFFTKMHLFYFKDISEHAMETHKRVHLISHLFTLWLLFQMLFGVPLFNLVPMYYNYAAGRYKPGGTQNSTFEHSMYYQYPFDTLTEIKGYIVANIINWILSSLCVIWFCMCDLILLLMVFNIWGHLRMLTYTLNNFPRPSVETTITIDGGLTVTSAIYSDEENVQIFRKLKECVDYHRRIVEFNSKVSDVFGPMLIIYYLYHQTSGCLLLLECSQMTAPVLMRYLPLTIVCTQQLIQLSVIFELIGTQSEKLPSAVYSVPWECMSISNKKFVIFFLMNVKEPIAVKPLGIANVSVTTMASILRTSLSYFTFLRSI
T2 sequence (Q9VNB5 1-486 partner): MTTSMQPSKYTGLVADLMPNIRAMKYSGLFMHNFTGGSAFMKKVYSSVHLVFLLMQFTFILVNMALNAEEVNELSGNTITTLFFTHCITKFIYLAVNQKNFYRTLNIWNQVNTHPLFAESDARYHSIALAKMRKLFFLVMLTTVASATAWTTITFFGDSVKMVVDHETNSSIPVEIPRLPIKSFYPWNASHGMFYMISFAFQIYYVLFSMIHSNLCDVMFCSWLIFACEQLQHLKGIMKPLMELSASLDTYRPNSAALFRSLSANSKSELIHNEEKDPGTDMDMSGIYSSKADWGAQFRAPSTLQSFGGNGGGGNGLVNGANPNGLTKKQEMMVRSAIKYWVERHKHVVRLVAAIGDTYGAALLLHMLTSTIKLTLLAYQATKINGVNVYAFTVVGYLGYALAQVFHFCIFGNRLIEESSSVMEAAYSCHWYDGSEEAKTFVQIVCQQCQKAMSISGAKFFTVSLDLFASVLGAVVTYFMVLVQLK
The experiment in a line: transcuticular calcium imaging (GCaMP6m), dose-response. Particulars: volatile stimulus; dose loaded on filter paper (in hexane), not a concentration; in vivo fly antenna; 1 s puff.

`C=C/C(C)=C/CC=C(C)C` [(E)-ocimene]: the EC50 in experiment [1] came out at 1.27 ± 0.37 µg.

On to `CC/C=C\CCOC(C)=O` [(Z)-3-hexenyl acetate], for which the EC50 in experiment [1] is 11.52 ± 0.70 µg.

Turning to `C/C=C/C/C=C\CCCCCCCCOC(C)=O` [(Z,E)-9,12-tetradecadienyl acetate], the EC50 in experiment [2] was 0.96 ± 0.14 µg.
